Laboratory results published in ChEMBL document CHEMBL3994641, “Design, synthesis, and cytotoxicity of stabilized mycolactone analogs” (Bioorg Med Chem Lett, 2017).

Tests used:
[1] = Stability of the compound in 0.1 M HCl in MeOH at 0.5 mg after 2 hrs by 1H-NMR spectroscopy; type: physicochemical
[2] = Drug metabolism assessed as initial E/Zdouble-bond isomerization followed by photocyclization in acetone irradiated with UV light at 1 mg after 2 to 72 hrs by 1H-NMR spectroscopy; type: physicochemical
[3] = Drug metabolism assessed as compound decomposition in 0.1 M HCl in MeOH at 0.5 mg after 8 hrs by 1H-NMR spectroscopy; type: physicochemical; conditions: read-out: Drug metabolism
[4] = Stability of the compound in 0.1 M NaOH in MeOH at 0.5 mg after 2 hrs by 1H-NMR spectroscopy; type: physicochemical
[5] = Drug metabolism assessed as compound decomposition in 0.1 M NaOH in MeOH at 0.5 mg after 14 hrs by 1H-NMR spectroscopy; type: physicochemical; conditions: read-out: Drug metabolism
[6] = Thermal stability of the compound in acetone under sunlight at 60 degreeC after 1 day; type: physicochemical; conditions: 24 h
[7] = Thermal stability of the compound in acetone under sunlight at 60 degreeC after 10 days; type: physicochemical; conditions: 240 h
HEK293 = test: Cytotoxicity against human HEK293 cells after 72 hrs by CellTiter blue staining based microscopic method; type: cell-based; conditions: HEK293, 72 h
A549 = test: Cytotoxicity against human A549 cells after 72 hrs by CellTiter blue staining based microscopic method; type: functional, cell-based; conditions: A549, 72 h
LOX IMVI = test: Cytotoxicity against human LOXIMVI cells after 72 hrs by CellTiter blue staining based microscopic method; type: functional, cell-based
L929 = test: Cytotoxicity against mouse L929 cells after 72 hrs by CellTiter blue staining based microscopic method; type: cell-based; conditions: L929, 72 h
[8] = Stability of the compound in DMSO/EtOH at -20 degreeC assessed as decomposition up to 1 month; type: physicochemical
[9] = Drug metabolism assessed as compound decomposition in neat at room temperature up to 10 days; type: physicochemical; conditions: read-out: Drug metabolism
[10] = Drug metabolism assessed as compound decomposition in DMSO/EtOH at -20 degreeC after 3 years; type: physicochemical; conditions: read-out: Drug metabolism
[11] = Solubility of the compound in water; type: physicochemical; conditions: buffer
[12] = Solubility of the compound in water/0.1% Triton-X-100/NP-40; type: physicochemical; conditions: buffer
[13] = Drug metabolism assessed as E/Z double-bond isomerization by measuring delta4',5'-Z and delta4',5'-E isomers in acetone under sunlight at 60 degreeC after 1 day; type: physicochemical; conditions: 24 h
[14] = Drug metabolism assessed as E/Z double-bond isomerization by measuring delta4',5'-Z and delta4',5'-E isomers in acetone under sunlight at 60 degreeC after 10 days; type: physicochemical; conditions: 240 h
[15] = Stability of the compound in 1 N HCl in water/0.1% Triton-X-100; type: physicochemical; conditions: buffer
[16] = Stability of the compound in 1 N NaOH in water/0.1% Triton-X-100; type: physicochemical; conditions: buffer
[17] = Stability of the compound in 0.1 M HCl in MeOH at 0.5 mg after 8 hrs by 1H-NMR spectroscopy; type: physicochemical
[18] = Stability of the compound in acetone irradiated with UV light at 1 mg after 2 to 72 hrs by 1H-NMR spectroscopy; type: physicochemical
[19] = Stability of the compound in 0.1 M NaOH in MeOH at 0.5 mg after 14 hrs by 1H-NMR spectroscopy; type: physicochemical

Row | Stability [1] | Drug metabolism [2] | Stability [4] | Stability [6] | Stability [7] | Stability [15] | Stability [16] | Stability [17] | Stability [18] | Stability [19] | SMILES | IC50 (HEK293) [µM] | IC50 (A549) [µM] | IC50 (LOX IMVI) [µM] | IC50 (L929) [µM] | further results
1 | Stable | Metabolite_Notdetected | Stable | Stable | Stable | Stable | Stable | Stable | Stable | Stable | CC(/C=C/C(=O)O[C@H]1CCCC(=O)O[C@@H]([C@@H](C)C/C(C)=C/[C@@H](C)[C@H](O)C[C@@H](C)O)C/C=C(\C)C[C@@H]1C)=C\[C@@H](C)C/C=C/C(C)=C/[C@H](O)[C@@H](O)C[C@H](C)O | 0.003 | 0.077 | 0.029 | 0.053 | 
2 | Stable | Metabolite_Notdetected | Stable | Stable | Stable | Stable | Stable | Stable | Stable | Stable | CC(/C=C/C(=O)O[C@H]1CCCC(=O)O[C@@H]([C@@H](C)C/C(C)=C/[C@@H](C)[C@H](O)C[C@@H](C)O)C/C=C(\C)C[C@@H]1C)=C\[C@H](C)C/C=C/C(C)=C/[C@H](O)[C@@H](O)C[C@H](C)O | 0.083 | 0.4 | 0.12 | 0.063 | 

Row | SMILES | Stability [1] | Drug metabolism [2] | Stability [4] | Stability [6] | Stability [7] | Stability [15] | Stability [16] | Stability [17] | Stability [18] | Stability [19] | IC50 (HEK293) [µM] | IC50 (A549) [µM] | IC50 (LOX IMVI) [µM] | IC50 (L929) [µM] | further results
3 | CC(=CC(/C)=C/C=C/C(C)=C/[C@H](O)[C@@H](O)C[C@H](C)O)/C=C/C(=O)O[C@H]1CCCC(=O)O[C@@H]([C@@H](C)C/C(C)=C/[C@@H](C)[C@H](O)C[C@@H](C)O)C/C=C(\C)C[C@@H]1C (mixture of isomers) | Stable | Metabolite_Detected | Stable | Stable | Stable | Stable | Stable |  |  |  | 0.0032 | 0.00077 | 0.0069 | 0.013 | degraded at 8 h [3]: 80%; degraded at 14 h [5]: 90%; Stability [8]: Stable; degraded at 240 h [9]: 20 to 30%; degraded at 26298 h [10]: 20%; solubility [11]: Insoluble; solubility [12]: Soluble; Drug metabolism [13]: Metabolite_Detected; Drug metabolism [14]: Metabolite_Detected
